pEC50, pIC50: −log10 of the molar value.
Legend:
MAPKAPK5 = target: T1, MAPKAPK5 (Homo sapiens, UniProt Q8IW41); assay: MAPKAP-K5 assay (FlashPlate kinase assay)
T1 sequence (Q8IW41 1-471 isoform Q8IW41-2): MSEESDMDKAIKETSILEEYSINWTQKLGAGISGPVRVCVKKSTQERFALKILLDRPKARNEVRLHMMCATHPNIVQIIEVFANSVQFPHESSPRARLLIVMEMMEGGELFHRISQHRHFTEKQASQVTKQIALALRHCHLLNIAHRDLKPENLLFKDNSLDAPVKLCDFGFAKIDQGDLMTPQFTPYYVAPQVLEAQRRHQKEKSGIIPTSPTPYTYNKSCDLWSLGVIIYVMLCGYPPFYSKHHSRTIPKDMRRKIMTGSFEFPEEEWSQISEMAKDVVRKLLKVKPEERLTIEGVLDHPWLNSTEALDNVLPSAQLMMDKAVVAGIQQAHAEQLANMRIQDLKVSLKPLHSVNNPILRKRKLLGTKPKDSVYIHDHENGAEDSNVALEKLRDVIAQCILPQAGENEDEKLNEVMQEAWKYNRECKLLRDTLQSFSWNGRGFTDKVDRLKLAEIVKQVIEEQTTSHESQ

[1] = test system: MMP1 expression by activated primary synovial fibroblasts; assay: 'MMP assay': MMP1 expression by complex trigger activated synovial fibroblasts (MMP1 ELISA); assay type: cell-based; details: Homo sapiens, Fibroblast, RASFs, complex trigger, 48 hrs, MMP1 ELISA

SMILES	pIC50 (MAPKAPK5)	pEC50 ([1]; Table 4)	pEC50 ([1]; Table 3)
COc1cc(Nc2ncc(-c3cn[nH]c3)n3ncnc23)ccc1C(=O)NCc1ccccc1 [Compound 122, N-Benzyl-2-methoxy-4-[5-(1H-pyrazol-4-yl)-[1,2,4]triazolo[1,5-a]pyrazin-8-ylamino]-benzamide]	< 6.00	< 6.00	–
O=C(NCc1ccccc1)c1cccc(Nc2ncc(-c3cn[nH]c3)n3ncnc23)c1 [Compound 123]	< 6.00	< 6.00	–
O=C(NCc1ccccn1)c1cccc(Nc2ncc(-c3cn[nH]c3)n3ncnc23)c1 [Compound 124, N-Pyridin-2-ylmethyl 3-[5-(1H-pyrazol-4-yl)-[1,2,4]triazolo[1,5-a]pyrazin-8-ylamino]benzamide]	< 6.00	< 6.00	–
CCN(CC)C(=O)c1cccc(Nc2ncc(-c3cn[nH]c3)n3ncnc23)c1 [Compound 125]	< 6.00	< 6.00	–
O=C(c1cccc(Nc2ncc(-c3cn[nH]c3)n3ncnc23)c1)N1CCCC1 [Compound 126]	< 6.00	< 6.00	–
CC(C)N1CCN(C(=O)c2cccc(Nc3ncc(-c4cn[nH]c4)n4ncnc34)c2)CC1 [Compound 127, (4-Isopropylpiperazin-1-yl)-{3-[5-(1H-pyrazol-4-yl)-[1,2,4]triazolo[1,5-a]pyrazin-8-ylamino]phenyl}methanone]	6.00 to 6.30	< 6.00	–
NC(=O)c1cccc(Nc2ncc(-c3cn[nH]c3)n3ncnc23)c1 [Compound 128]	< 6.00	< 6.00	–
CCNC(=O)c1cccc(Nc2ncc(-c3cn[nH]c3)n3ncnc23)c1 [Compound 129, N-Ethyl 3-[5-(1H-pyrazol-4-yl)-[1,2,4]triazolo[1,5-a]pyrazin-8-ylamino]benzamide]	< 6.00	< 6.00	–
O=C(NCC1CCCCC1)c1cccc(Nc2ncc(-c3cn[nH]c3)n3ncnc23)c1 [Compound 130]	< 6.00	< 6.00	–
O=C(NCc1ccc(O)cc1)c1cccc(Nc2ncc(-c3cn[nH]c3)n3ncnc23)c1 [Compound 131, N-(4-Hydroxybenzyl) 3-[5-(1H-pyrazol-4-yl)-[1,2,4]triazolo[1,5-a]pyrazin-8-ylamino]benzamide]	< 6.00	6.00 to 6.30	–
COc1cc(Nc2ncc(-c3csc(C(N)=O)c3)n3ncnc23)ccc1C(=O)NCc1ccccc1 [Compound 132]	< 6.00	< 6.00	–
NC(=O)c1cc(-c2cnc(Nc3ccc(NC(=O)c4ccccc4)nc3)c3ncnn23)cs1 [Compound 133]	< 6.00	< 6.00	–
CN(Cc1ccccc1)C(=O)c1cccc(Nc2ncc(-c3cn[nH]c3)n3ncnc23)c1 [Compound 134, N-Benzyl-N-methyl 3-[5-(1H-pyrazol-4-yl)-[1,2,4]triazolo[1,5-a]pyrazin-8-ylamino]benzamide]	< 6.00	6.00 to 6.30	–
CNC(=O)C1CCN(C(=O)c2ccc(Nc3ncc(-c4cn[nH]c4)n4ncnc34)cc2)CC1 [Compound 136]	6.00 to 6.30	< 6.00	–
O=C(NCCc1ccncc1)c1ccc(Nc2ncc(-c3cn[nH]c3)n3ncnc23)cc1 [Compound 137]	6.00 to 6.30	< 6.00	–
CCN1CCN(C(=O)c2ccc(Nc3ncc(-c4cn[nH]c4)n4ncnc34)cc2)CC1 [Compound 138]	6.00 to 6.30	< 6.00	–
CCN1CCCC1CNC(=O)c1ccc(Nc2ncc(-c3cn[nH]c3)n3ncnc23)cc1 (centres unmarked) [Compound 139]	6.00 to 6.30	< 6.00	–
O=C(c1ccc(Nc2ncc(-c3cn[nH]c3)n3ncnc23)cc1)N1CC=CC1 [Compound 140]	6.00 to 6.30	< 6.00	–
CCOCCN1CCN(C(=O)c2ccc(Nc3ncc(-c4cn[nH]c4)n4ncnc34)cc2)CC1 [Compound 141]	6.00 to 6.30	< 6.00	–
O=C(NCC1CC1)c1ccc(Nc2ncc(-c3cn[nH]c3)n3ncnc23)cc1 [Compound 142]	< 6.00	< 6.00	–
CC(=O)N(C)C1CCN(C(=O)c2ccc(Nc3ncc(-c4cn[nH]c4)n4ncnc34)cc2)C1 (centres unmarked) [Compound 143]	6.00 to 6.30	< 6.00	–
O=C(c1ccc(Nc2ncc(-c3cn[nH]c3)n3ncnc23)cc1)N1CCN(c2ccccc2)CC1 [Compound 145]	6.00 to 6.30	< 6.00	–
COC[C@@H]1CCCN1C(=O)c1ccc(Nc2ncc(-c3cn[nH]c3)n3ncnc23)cc1 [Compound 146]	< 6.00	< 6.00	–

SMILES	pIC50 (MAPKAPK5)	pEC50 ([1]; Table 4)	pEC50 ([1]; Table 3)
O=C(c1ccc(Nc2ncc(-c3cn[nH]c3)n3ncnc23)cc1)N1CCN(c2ccccn2)CC1 [Compound 148]	6.00 to 6.30	< 6.00	–
CCC(COC)NC(=O)c1ccc(Nc2ncc(-c3cn[nH]c3)n3ncnc23)cc1 (centres unmarked) [Compound 149]	< 6.00	< 6.00	–
COCCN1CCN(C(=O)c2ccc(Nc3ncc(-c4cn[nH]c4)n4ncnc34)cc2)CC1 [Compound 150]	6.00 to 6.30	< 6.00	–
O=C(NCCc1ccc(O)cc1)c1ccc(Nc2ncc(-c3cn[nH]c3)n3ncnc23)cc1 [Compound 151]	< 6.00	< 6.00	–
CCC(C)N1CCN(C(=O)c2ccc(Nc3ncc(-c4cn[nH]c4)n4ncnc34)cc2)CC1 (centres unmarked) [Compound 152]	6.00 to 6.30	< 6.00	–
CN1CCN(c2ccc(NC(=O)c3ccc(Nc4ncc(-c5cn[nH]c5)n5ncnc45)cc3)cc2)CC1 [Compound 153]	6.00 to 6.30	< 6.00	–
CCOC(=O)CN(Cc1ccccc1)C(=O)c1ccc(Nc2ncc(-c3cn[nH]c3)n3ncnc23)cc1 [Compound 154]	< 6.00	< 6.00	–
CC(C)NC(=O)CN1CCN(C(=O)c2ccc(Nc3ncc(-c4cn[nH]c4)n4ncnc34)cc2)CC1 [Compound 155]	6.00 to 6.30	< 6.00	–
COCCN(C)C(=O)c1ccc(Nc2ncc(-c3cn[nH]c3)n3ncnc23)cc1 [Compound 156]	< 6.00	< 6.00	–
CCN(CCOC)C(=O)c1ccc(Nc2ncc(-c3cn[nH]c3)n3ncnc23)cc1 [Compound 157]	< 6.00	< 6.00	–
O=C(NCC1CCCO1)c1ccc(Nc2ncc(-c3cn[nH]c3)n3ncnc23)cc1 (centres unmarked) [Compound 158]	6.00 to 6.30	< 6.00	–
O=C(c1ccc(Nc2ncc(-c3cn[nH]c3)n3ncnc23)cc1)N1CC=CCC1 [Compound 159]	6.00 to 6.30	< 6.00	–
CSCCNC(=O)c1ccc(Nc2ncc(-c3cn[nH]c3)n3ncnc23)cc1 [Compound 160]	6.00 to 6.30	< 6.00	–
CC1(C)OCC(CNC(=O)c2ccc(Nc3ncc(-c4cn[nH]c4)n4ncnc34)cc2)O1 (centres unmarked) [Compound 161]	6.00 to 6.30	< 6.00	–
CC(C)N(CCNC(=O)c1ccc(Nc2ncc(-c3cn[nH]c3)n3ncnc23)cc1)C(C)C [Compound 162]	6.00 to 6.30	< 6.00	–
CC(C)CNC(=O)c1ccc(Nc2ncc(-c3cn[nH]c3)n3ncnc23)cc1 [Compound 164]	< 6.00	< 6.00	–
O=C(c1ccc(Nc2ncc(-c3cn[nH]c3)n3ncnc23)cc1)N1CCC(N2CCCCC2)CC1 [Compound 165]	< 6.00	< 6.00	–
O=C(NCCO)c1ccc(Nc2ncc(-c3cn[nH]c3)n3ncnc23)cc1 [Compound 166]	6.00 to 6.30	< 6.00	–
NC(=O)c1cc(-c2cnc(Nc3ccc(NC(=O)Cc4ccccc4)nc3)c3ncnn23)cs1 [Compound 167, 4-[8-(6-Phenylacetylamino-pyridin-3-ylamino)-[1,2,4]triazolo[1,5-a]pyrazin-5-yl]-thiophene-2-carboxylic acid amide]	6.00 to 6.30	< 6.00	–
Nc1nccn1-c1ncc(-c2ccc3c(c2)CNC3=O)n2ncnc12 [Compound 168]	< 6.00	–	< 6.00
CC(C)N1CCN(c2ccc(Nc3ncc(-c4cc5c(cn4)C(=O)NC5)n4ncnc34)cc2)CC1 [Compound 173]	< 6.00	–	< 6.00
O=C1CN(c2ccc(Nc3ncc(-c4cn[nH]c4)n4ncnc34)cc2)CCN1 [Compound 177]	< 6.00	–	< 6.00
CC(C)(C)NC(=O)N1CCC(Nc2ncc(-c3ccc4c(c3)CNC4=O)n3ncnc23)CC1 [Compound 178]	6.00 to 6.30	–	< 6.00

— patent publication US20100298300A1, “TRIAZOLOPYRAZINE COMPOUNDS USEFUL FOR THE TREATMENT OF DEGENERATIVE & INFLAMMATORY DISEASES” (priority 2006, published 2010)
